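Where inhibition never reached the appropriate level, the endpoint shown equals the highest concentration tested. Otherwise, values were interpolated linearly from a five-concentration, 48-hour dose response in 96-well plates. The concentration for full growth arrest is given as TGI.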
Assays:
Assay in all cases: DTP human tumour cell line panel, 48 h
[1] = tested on: CCRF-CEM leukemia
[2] = tested on: COLO 205 colon
[3] = tested on: MALME-3M melanoma
[4] = tested on: NCI/ADR-RES ovarian
[5] = tested on: RXF 393 renal
[6] = tested on: SF-539 CNS
[7] = tested on: SK-MEL-5 melanoma
[8] = tested on: SN12C renal
[9] = tested on: UACC-257 melanoma
[10] = tested on: HT29 colon

## O=c1ccc2c(Cl)cccc2o1
[1]
  TGI: > 100 µM
[2]
  TGI: > 100 µM
[3]
  TGI: > 100 µM
[4]
  TGI: > 100 µM
[5]
  TGI: > 100 µM
[6]
  TGI: > 100 µM
[7]
  TGI: > 100 µM
[8]
  TGI: > 100 µM
[9]
  TGI: > 100 µM

## O=S(=O)(Nc1nccs1)c1ccc([As](=O)(O)O)cc1
[1]
  TGI: > 100 µM
[2]
  TGI: > 100 µM
[10]
  TGI: > 100 µM
[3]
  TGI: > 100 µM
[4]
  TGI: > 100 µM
[5]
  TGI: > 100 µM
[7]
  TGI: > 100 µM
[8]
  TGI: > 100 µM

## COc1cc(/C=N/N=C(\N)NO)ccc1O
[1]
  TGI: > 100 µM
[2]
  TGI: > 100 µM
[10]
  TGI: > 100 µM
[3]
  TGI: > 100 µM
[5]
  TGI: > 100 µM
[6]
  TGI: > 100 µM
[7]
  TGI: > 100 µM
[8]
  TGI: > 100 µM
[9]
  TGI: > 100 µM

## O=[N+]([O-])c1ccc(NNN=Nc2ccc(-c3nc4ccccc4[nH]3)cc2)c([N+](=O)[O-])c1
[1]
  TGI: > 100 µM
[2]
  TGI: > 100 µM
[10]
  TGI: > 100 µM
[3]
  TGI: > 100 µM
[4]
  TGI: > 100 µM
[5]
  TGI: > 100 µM
[6]
  TGI: > 100 µM
[7]
  TGI: 87.5 µM
[8]
  TGI: > 100 µM
[9]
  TGI: > 100 µM

## CCN(CC)CCCC(C)Nc1c2ccc(Cl)cc2nc2cc(Cl)ccc12 (stereo not drawn)
[1]
  TGI: 7.47 µM
[2]
  TGI: 5.01 µM
[10]
  TGI: 8.28 µM
[3]
  TGI: 25.5 µM
[5]
  TGI: 13.2 µM
[6]
  TGI: 15.6 µM
[7]
  TGI: 10 µM
[8]
  TGI: 17.3 µM
[9]
  TGI: 8.87 µM

## OCC(O)C(O)C(O)C(O)CNCCO/N=C1/C(c2c(O)[nH]c3ccccc23)=Nc2ccccc21 (stereo not drawn)
[1]
  TGI: 30.2 µM
[2]
  TGI: 40.6 µM
[10]
  TGI: > 50 µM
[3]
  TGI: 27.7 µM
[4]
  TGI: > 50 µM
[5]
  TGI: 39.2 µM
[6]
  TGI: 41.6 µM
[7]
  TGI: 16.3 µM
[8]
  TGI: 46.4 µM
[9]
  TGI: 37.9 µM

## CC(C(=O)NCCNC(=O)CCCC(=O)N(C)O)C(=O)NCCNC(=O)CCCC(=O)N(C)O
[1]
  TGI: > 100 µM
[2]
  TGI: > 100 µM
[10]
  TGI: > 100 µM
[3]
  TGI: > 100 µM
[4]
  TGI: > 100 µM
[5]
  TGI: > 100 µM
[7]
  TGI: > 100 µM
[9]
  TGI: > 100 µM

## CSC1=C(SC)C(=O)c2cn(C)c(=O)cc2C1=O
[1]
  TGI: 0.826 µM
[2]
  TGI: 2.89 µM
[10]
  TGI: 13.1 µM
[3]
  TGI: 5.41 µM
[4]
  TGI: > 100 µM
[5]
  TGI: 3.43 µM
[6]
  TGI: 25.3 µM
[7]
  TGI: 3.15 µM
[8]
  TGI: 12.3 µM
[9]
  TGI: 7.05 µM
